From patent US20230295152A1 (SENDA BIOSCIENCES, INC., priority 2019, published 2023)
In brackets after ≈: the same amount, converted by molar mass. Where two headings read alike, the source gives them in different places.

How the values were obtained:
AHR = target: T1, AHR (Homo sapiens, UniProt P35869); test: DRE-Luciferase Reporter Assay, HepG2 AhR-Lucia reporter cells; format: cell-based; details: with AHR activating ligand at EC50, read-out: HepG2-Luc IC50
T1 construct: other cell line with a DRE-luciferase reporter stably transfected; endogenous in cells; host or cells: HepG2 AhR-Lucia reporter cells
T1 sequence (P35869 11-848): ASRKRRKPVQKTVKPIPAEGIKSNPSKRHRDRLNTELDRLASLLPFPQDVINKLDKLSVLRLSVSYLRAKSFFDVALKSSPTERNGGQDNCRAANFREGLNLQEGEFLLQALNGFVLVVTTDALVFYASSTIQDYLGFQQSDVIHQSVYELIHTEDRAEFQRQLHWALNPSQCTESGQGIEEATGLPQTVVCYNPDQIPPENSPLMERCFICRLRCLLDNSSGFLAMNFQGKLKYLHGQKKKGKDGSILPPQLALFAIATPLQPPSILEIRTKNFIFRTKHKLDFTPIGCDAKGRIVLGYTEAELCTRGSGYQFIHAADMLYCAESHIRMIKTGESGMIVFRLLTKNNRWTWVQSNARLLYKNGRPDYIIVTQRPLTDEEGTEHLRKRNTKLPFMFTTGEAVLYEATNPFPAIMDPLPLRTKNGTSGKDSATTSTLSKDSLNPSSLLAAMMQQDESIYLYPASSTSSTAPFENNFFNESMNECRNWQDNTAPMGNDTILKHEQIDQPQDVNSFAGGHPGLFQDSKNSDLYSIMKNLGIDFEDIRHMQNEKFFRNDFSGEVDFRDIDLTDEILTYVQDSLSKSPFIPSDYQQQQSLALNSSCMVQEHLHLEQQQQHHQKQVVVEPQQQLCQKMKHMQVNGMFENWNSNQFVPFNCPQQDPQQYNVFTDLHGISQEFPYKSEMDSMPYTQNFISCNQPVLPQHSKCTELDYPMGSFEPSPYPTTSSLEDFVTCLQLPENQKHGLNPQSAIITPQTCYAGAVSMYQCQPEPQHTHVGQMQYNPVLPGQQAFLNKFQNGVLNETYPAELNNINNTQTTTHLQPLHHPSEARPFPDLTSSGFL
Outline: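 DRE-luciferase reporter cells (e.g. HepG2 AhR-Lucia, 20000 cells) treated with antagonist log dilutions from 100 uM, then an AHR agonist (e.g. TCDD, kynurenine, ITE, FICZ) at its EC50 added after 1 hr. Secreted luciferase measured after 24 or 48 h (QUANTI-Luc); IC50 = concentration halving luciferase activity.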

[1] = Liver Microsome Stability Assay, human; format: in vitro ADME; details: human liver microsomes
Procedure: Two separate experiments were performed as follows.
With Cofactors (NADPH): 25 μL of 10 mM NADPH was added to the incubations. The final concentrations of microsomes and NADPH were 0.5 mg/mL and 1 mM, respectively. The final concentration of microsomes was 0.5 mg/mL. The mixture was pre-warmed at 37° C. for 10 minutes. The reaction was started with the addition of 2.5 μL of 100 μM control compound or test compound solutions. Verapamil was used as positive control in this study. The final concentration of test compound or control compound was 1 μM. The incubation solution was incubated in water batch at 37° C. Aliquots of 25 μL were taken from the reaction solution at 0.5, 5, 15, 30 and 60 minutes. The reaction was stopped by the addition of 5 volumes of cold acetonitrile with IS (200 nM caffeine and 100 nM tolbutamide). Samples were centrifuged at 3, 220 g for 40 minutes. Aliquot of 100 μL of the supernatant was mixed with 100 μL of ultra-pure H2O and then used for LC-MS/MS analysis.
Data Analysis: All calculations were carried out using Microsoft Excel. Peak areas were determined from extracted ion chromatograms. The slope value, k, was determined by linear regression of the natural logarithm of the remaining percentage of the parent drug vs. incubation time curve.
(§1) The in vitro half-life (in vitro t1/2) was determined from the slope value:
Conversion of the in vitro t1/2 (min) into the in vitro intrinsic clearance (in vitro CLint, in μL/min/mg protein) was done using the following equation (mean of duplicate determinations): […]
The calculations of Scaled-up CLint(mL/min/kg), Predicted CLH (mL/min/kg) and EH were done using the following equation:
Scaled-up CLint=(0.693/t1/2)×(1/(microsomal protein concentration(0.5 mg/mL)))×Scaling Factors;Predicted CLH=(QH×Scaled-up CLint×fub)/(QH+Scaled-up CLint×fub);EH=Predicted CLH/QH
where QH is the hepatic blood flow (mL/min/kg) (Table 32), • fub is the fraction of unbound drug in plasma which is assumed to be 1.
“+++” indicates a Clint value less than 10 mL/min/Kg, […] indicates a Clint between 10 and 20 mL/min/Kg, and “+” indicates a Clint above 20 mL/min/Kg.

[2] = Solubility Determination Assay in PBS pH 1.6 and pH 7.4; format: physicochemical; details: PBS buffer, aqueous buffer, kinetic from dmso stock
Procedure: The stock solutions of test compounds and control compound progesterone were prepared in DMSO at the concentrations of 10 mM. 15 μL of stock solution (10 mM) of each sample was placed in order into their proper 96-well rack. 485 μL of PBS pH 1.6 and pH 7.4 were added into each vial of the cap-less Solubility Sample plate. The assay was performed in singlet. One stir stick was added to each vial and then the vial was sealed using a molded PTFE/Silicone plug. […] After completion of the 2 hours, plugs were removed and the stir sticks were removed using a big magnet. The samples from the Solubility Sample plate were transferred into the filter plate. Using the Vacuum Manifold, all the samples were filtered. An aliquot of 5 μL was taken from the filtrate followed by addition of 495 μL of a mixture of H2O and acetonitrile containing internal standard (1:1). A certain proportion of ultrapure water was used to dilute the diluent according to the peak shape. The dilution factor was changed according to the solubility values and the LC-MS signal response.
From the 10 mM DMSO STD plate, 6 μL was transferred into the remaining empty plate, and then 194 μL of DMSO were added to that plate to have a STD concentration of 300 μM. From the 300 μM DMSO STD plate, 5 μL were transferred into the remaining empty plate, and then 495 μL of a mixture of H2O and acetonitrile containing internal standard (1:1) were added to that plate to have a final STD concentration of 3 μM. A certain proportion of ultrapure water was used to dilute the diluent according to the peak shape. The concentrations of the standard samples were changed according to the LC-MS signal response.
The plate was placed into the well plate autosampler. The samples were evaluated by LC-MS/MS analysis.
All calculations were carried out using Microsoft Excel.
The filtrate was analyzed and quantified against a standard of known concentration using LC coupled with mass spectral peak identification and quantitation. Solubility values of the test compound and control compound were calculated as follows: […]
Any value of the compounds that was not within the specified limits was rejected and the experiment was repeated.
“+++” indicates a solubility value equal to or greater than 1 μM, “++” indicates a solubility value between 0.1 and 1 μM, and “+” indicates a solubility value less than 0.1 μM.

[3] = Hepatocyte Stability Assay, human; format: in vitro ADME; details: cryopreserved hepatocytes in suspension; human hepatocytes; read-out: Human hepatocyte clearance
Procedure: • Preparation of working solutions: 10 mM stock solutions of test compound and positive control were prepared in DMSO. In separate conical tubes, the 10 mM solution of test compound and the positive control were diluted to 100 μM by combining 198 μL of 50% acetonitrile/50% water and 2 μL of 10 mM stock.
Preparation of Hepatocytes: Incubation medium (William's E Medium supplemented with GlutaMAX) and hepatocyte thawing medium were placed in a 37° C. water bath and allowed warming for at least 15 minutes prior to use. A vial of cryopreserved hepatocytes was transferred from storage, ensuring that vials remained at cryogenic temperatures until thawing process ensued. Cells were thawed by placing the vial in a 37° C. water bath and gently shaking the vials for 2 minutes. After thawing was completed, vial was sprayed with 70% ethanol and transferred to a biosafety cabinet. Wide-bore pipette tip were used to transfer hepatocytes into 50 mL conical tube containing thawing medium. The 50 mL conical tube were placed into a centrifuge and spun at 100 g for 10 minutes. Upon completion of spin, thawing medium was aspirated and resuspended hepatocytes in enough incubation medium to yield ˜1.5×10^6 cells/mL. Using an AO/PI Staining, cells were counted and the viable cell density was determined. Cells with poor viability (<75% viability) were determined to be not acceptable for use. Cells were diluted with incubation medium to a working cell density of 0.5×10^6 viable cells/mL.
Procedure for Stability Determination: 198 μL of hepatocytes were pipetted into each wells of a 96-well non-coated plate. The plate was placed in the incubator to allow the hepatocytes to warm for 10 minutes. 2 μL of the 100 μM test compound or positive control solutions were pipetted into respective wells of the 96-well non-coated plate to start the reaction. The plate was returned to the incubator for the designed time points. Well contents was transferred in 25 μL aliquots at time points of 0, 15, 30, 60, 90 and 120 minutes. The aliquots were then mixed with 6 volumes (150 μL) of acetonitrile containing internal standard, IS (100 nM alprazolam, 200 nM caffeine and 100 nM tolbutamide) to terminate the reaction. The mixture was vortex for 5 minutes. Samples were centrifuged for 45 minutes at 3,220 g. An aliquot of 100 μL of the supernatant was diluted by 100 μL ultra-pure water, and the mixture was used for LC/MS/MS analysis. All incubations were performed in duplicate.
Data Analysis: All calculations were carried out using Microsoft Excel. Peak areas were determined from extracted ion chromatograms. In vitro half-life (t1/2) of parent compound was determined by regression analysis of the percent parent disappearance vs. time curve.
as §1
Conversion of the in vitro t1/2 (in min) into the in vitro intrinsic clearance (in vitro CLint, in μL/min/1×10^6 cells) was done using the following equation (mean of duplicate determinations):
V=incubation volume(0.2 mL);
N=number of hepatocytes per well(0.1×10^6 cells).
“+++” indicates a CLint value less than 20 mL/min/Kg, “++” indicates a CLint between 20 and 50 mL/min/Kg, and “+” indicates an CLint above 50 mL/min/Kg.

[4] = PBS pH 1.6, 25° C., read-out: Aq. Solubility at pH = 1.6
[5] = PBS pH 7.4, 25° C., read-out: Aq. Solubility at pH = 7.4

IC50 (AHR) [nM] | solubility at 2 h [2, 4] [µM] | solubility at 2 h [2, 5] [µM] | CLint scaled at 1 μM [3] [mL/min/kg] | SMILES | Human liver microsome clearance [1]
< 100 | ≥ 1 | 0.1 to 1 (≈ 0.0389 to 0.389 µg/mL) |  | Cc1ccc(-c2cc3c(=O)n([C@@H](C)CO)cnc3c(-c3cccc(F)c3)n2)cc1 [Compound 48, 8-(3-fluorophenyl)-3-[(1S)-2-hydroxy-1-methyl-ethyl]-6-(p-tolyl)pyrido[3,4-d]pyrimidin-4-one] | +++ (“+++” indicates a Clint value less than 10 mL/min/Kg)
< 100 | ≥ 1 | ≥ 1 |  | O=c1c2cc(-c3ccc(C(F)(F)F)cn3)nc(-c3cccnc3)c2ncn1[C@@H]1COC[C@@H]1O [Compound 148, 3-((3R,4R)-4-hydroxytetrahydrofuran-3-yl)-8-(pyridin-3-yl)-6-(5-(trifluoromethyl)pyridin-2-yl)pyrido[3,4-d]pyrimidin-4(3H)-one] | 
< 100 | ≥ 1 | ≥ 1 |  | C[C@@H](CO)n1cnc2c(-c3cccnc3)nc(-c3ccc(Cl)cc3)cc2c1=O [Compound 24] | 
< 100 |  |  | < 20 | C[C@@H](CO)n1cnc2c(-c3cnn(C)c3)nc(-c3ccc(C(F)(F)F)cn3)cc2c1=O [Compound 150, (S)-3-(1-hydroxypropan-2-yl)-8-(1-methyl-1H-pyrazol-4-yl)-6-(5-(trifluoromethyl)pyridin-2-yl)pyrido[3,4-d]pyrimidin-4(3H)-one] | 
 | ≥ 1 | ≥ 1 | < 20 | O=c1c2cc(-c3ccc(Cl)cc3)nc(-c3cccnc3)c2ncn1[C@H]1COC[C@H]1O (stereo in doubt) [Compound 70] | 
< 100 | ≥ 1 | ≥ 1 |  | O=c1c2cc(-c3ccc(C(F)(F)F)nc3)nc(-c3cccnc3)c2ncn1[C@@H]1COC[C@@H]1O [Compound 129, 3-((3R,4R)-4-hydroxytetrahydrofuran-3-yl)-8-(pyridin-3-yl)-6-(6-(trifluoromethyl)pyridin-3-yl)pyrido[3,4-d]pyrimidin-4(3H)-one] | 
< 100 |  |  | < 20 | O=c1c2cc(-c3ccc(Cl)cc3)nc(-c3cccnc3)c2ncn1[C@@H]1CNC[C@H]1O [Compound 134, 6-(4-chlorophenyl)-3-((3R,4R)-4-hydroxypyrrolidin-3-yl)-8-(pyridin-3-yl)pyrido[3,4-d]pyrimidin-4(3H)-one] | 
 | ≥ 1 | < 0.1 | < 20 | O=c1c2cc(-c3ccc(OC(F)(F)F)cc3)nc(-c3cccnc3)c2ncn1C[C@@H](O)C(F)(F)F [Compound 123, (R)-8-(pyridin-3-yl)-3-(3,3,3-trifluoro-2-hydroxypropyl)-6-(4-(trifluoromethoxy)phenyl)pyrido[3,4-d]pyrimidin-4(3H)-one] | 
< 100 | ≥ 1 | < 0.1 |  | Cc1ccc(-c2cc3c(=O)n([C@H](CO)C(C)C)cnc3c(-c3cc(F)cc(F)c3)n2)cc1 [Compound 37] | 
< 100 | < 0.1 | < 0.1 |  | CC(C)(O)Cn1cnc2c(-c3cccc(F)c3)nc(-c3ccc(Cl)cc3)cc2c1=O [Compound 38] | 
